Measured values as given in ChEMBL document CHEMBL1201862, “PubChem BioAssay data set” (2004).
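1) Cells in 96-well plates. 2) Compound, 48 h, 5 concentrations. 3) Linear interpolation between surrounding doses. 4) Unreached endpoint = highest concentration. At the GI50, growth is halved.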 Activity calls are given as the source filed them. Rule as the data show it: active = GI50 up to about 1.1 µM and inactive = higher.

How the values were obtained:
Experiment in all cases: NCI tumour cell line growth inhibition, 48 h
A498 = system: A498
HCT-116 = system: HCT-116
HOP-92 = system: HOP-92
IGROV-1 = system: IGROV-1
KM12 = system: KM12
LOX IMVI = system: LOX IMVI
NCI-H522 = system: NCI-H522
OVCAR-4 = system: OVCAR-4
OVCAR-8 = system: OVCAR-8
RPMI-8226 = system: RPMI-8226
SK-MEL-28 = system: SK-MEL-28
SK-MEL-2 = system: SK-MEL-2
SK-OV-3 = system: SK-OV-3
SN12C = system: SN12C
SNB-19 = system: SNB-19
SR = system: SR
U-251 = system: U-251
UACC-62 = system: UACC-62
UO-31 = system: UO-31

Measured: GI50

CCN(C(=N)C#N)c1ccccc1
inactive: A498 > 100 µM | HCT-116 > 60.4 µM | HOP-92 > 100 µM | IGROV-1 > 100 µM | KM12 > 100 µM | LOX IMVI 47.2 µM | NCI-H522 > 100 µM | OVCAR-4 > 100 µM | OVCAR-8 > 100 µM | RPMI-8226 > 100 µM | SK-MEL-28 > 100 µM | SK-MEL-2 > 100 µM | SK-OV-3 > 100 µM | SN12C > 100 µM | SNB-19 > 100 µM | SR > 100 µM | U-251 65.9 µM | UACC-62 > 72.3 µM | UO-31 > 100 µM

COC(=O)NC(=O)NC(Cc1ccccc1)NC(=O)OCc1ccccc1 (stereo unspecified)
inactive: A498 30.3 µM | HCT-116 39.3 µM | HOP-92 18.1 µM | IGROV-1 70.8 µM | KM12 > 100 µM | LOX IMVI > 100 µM | NCI-H522 28.3 µM | OVCAR-4 > 100 µM | OVCAR-8 74.1 µM | RPMI-8226 > 100 µM | SK-MEL-28 > 100 µM | SK-MEL-2 63.2 µM | SK-OV-3 18 µM | SN12C > 100 µM | SNB-19 42.7 µM | SR > 100 µM | U-251 44.1 µM | UACC-62 > 100 µM | UO-31 30.9 µM

CC(=O)NC(CCCN(Cc1ccccc1)C(=O)N(CCCl)N=O)C(=O)NCc1ccccc1 (stereo unspecified)
inactive: A498 32.7 µM | HCT-116 37.8 µM | HOP-92 36 µM | IGROV-1 44.4 µM | KM12 60.5 µM | LOX IMVI 2.92 µM | NCI-H522 57.1 µM | OVCAR-4 > 95.3 µM | OVCAR-8 > 71.1 µM | RPMI-8226 > 70 µM | SK-MEL-28 78.3 µM | SK-MEL-2 > 66.5 µM | SK-OV-3 55.6 µM | SN12C 46.3 µM | SNB-19 17.8 µM | SR 3.69 µM | U-251 10.9 µM | UACC-62 2.24 µM | UO-31 43.4 µM

NC(CCc1nc(-c2ccc(Cl)cc2)cs1)C(=O)O (stereo unspecified)
inactive: A498 > 100 µM | HCT-116 > 100 µM | HOP-92 > 73.5 µM | IGROV-1 > 100 µM | KM12 > 100 µM | LOX IMVI > 100 µM | NCI-H522 > 100 µM | OVCAR-4 > 100 µM | OVCAR-8 > 100 µM | RPMI-8226 > 100 µM | SK-MEL-28 > 100 µM | SK-MEL-2 > 100 µM | SK-OV-3 > 100 µM | SN12C > 100 µM | SNB-19 > 100 µM | SR > 100 µM | U-251 > 100 µM | UACC-62 > 100 µM | UO-31 > 100 µM
